How the values were obtained:
HT-22 cells = experiment: CNP-recorded membrane potential of HT-22 cells during ionic (K+) enrichment; format: cell-based, mouse; conditions: for depolarization: KCl added to bath
Description: Because the cell membrane is highly permeable to potassium ions (K^+), an increase or decrease in extracellular K+ concentration will, respectively, cause a resting cell to depolarize (membrane potential becoming more positive) or hyperpolarize (membrane potential becoming more negative). Utilizing CNPs, variations in membrane potential were monitored over tens of minutes. FIG. 8A is a recording of membrane potential from an HT-22 cell during perfusion intervals with normal HBSS and K+-enriched HBSS (additional 5 mM K^+). […] After approximately 2 min at higher extracellular K^+, the cell was perfused with normal HBSS and the cell slowly returned to its RMP.
Next, a CNP was used to measure changes in membrane potential during repetitive extracellular administration of KCl [FIG. 8B]. After penetrating the cell, as indicated by the arrow in FIG. 8B, the CNP measured a stable RMP under normal HBSS perfusion (Emp=−68 mV). […] Under constant perfusion in normal HBSS, the membrane potential returned to its original value after […]. The results were reproducible with high fidelity.
FIG. 8C is a representation of potential variations as a function of time during the administration of HBSS and the varied K+-enrichment of HBSS (additional 5 and 15 mM K^+). […] As normal HBSS perfusion brought the bath back to its initial K+ concentration, the cell returned to its RMP in ˜90 seconds.
Lastly, CNPs were used to electrically record a cell response to sequential pharmacological stimulation and ionic enrichment. FIG. 10B represents the opposing membrane responses to such stimuli over time. […] Once the GABA was washed away under constant HBSS perfision, the cell returned to its RMP in 60 sec. […] As excess KCl was washed away under constant HBSS perfusion, the cell returned again to its RMP after 60 sec.
Cell Culture and Preparation. The mouse hippocampal cell line HT-22 was kindly provided by Dr. David Schubert (The Salk Institute, San Diego, Calif.). Cells were grown in Dulbecco's Modified Eagle Medium (DMEM, high glucose) supplemented with 10% fetal bovine serum (FBS) and 1% antibiotics. The cells were plated on 12 mm cover slips 48 hrs prior to the electrophysiology measurements. The cells on the cover slips were incubated in HBSS (with calcium and magnesium) at room temperature for 10 min prior to measurements. The cover slips were subsequently placed in an open diamond perfision bath (Warner Instruments Corp., RC-22C) positioned on an upright microscope (Nikon eclipse E600FN, 40× water-immersion lens, Burleigh Gibraltar fixed-stage platform) located atop a vibration-isolation table. Cells were routinely perfised with HBSS at a flow rate of 1.0 mllmin.
Electrophysiology. Membrane potential measurements were recorded with an Axon AxoClamp-2A amplifier equipped with a headstage for high resistance electrodes (Axon HS2-XO.OlMU) and Digidata 1322A digitizer (Axon Instruments/Molecular Devices, Sunnyvale, Calif.). Experimental protocols were controlled and data acquired by a personal computer using the Clampex 8.2 software (Axon Instruments). CNPs were inserted into a standard electrode holder until the metal wire of the holder came in contact with the inner carbon film of the CNP. A slight positive pressure was applied through the holder's perfixion port to keep external solution from filling the hollow CNP by capillarity. A micromanipulator (Narishige MHW-3) was used to manipulate and position the CNP electrodes during the electrophysiology measurements. All the electrical measurements were carried out versus an AgIAgCl reference electrode submerged in HBSS in discontinuous current clamp @CC) mode, at zero current, with no capacitance compensation. The CNP potential was nulled (+I-2 mV) with the amplifier offset potential during immersion in HBSS before all electrical measurements. Recorded electrical measurements were not adjusted to compensate for differences in extracellular and intracellular junction potentials.

GABAA receptor = experiment: CNP-recorded membrane potential of HT-22 cells during pharmacological stimulation (GABA, bicuculline); format: cell-based, mouse; conditions: for hyperpolarization from the RMP: 12 mM GABA in bath; for time for cell to return to its RMP: constant HBSS perfusion
Description: Recording Cellular Responses to Pharmacological Stimuli. In addition to monitoring predictable cell membrane potential changes caused by ionic enrichment, CNPs were utilized to electrically record cell responses to pharmacological stimuli. Y-aminobutyric acid (GABA), a principal inhibitory neurotransmitter in the mammalian central nervous system which acts as an agonist for the membrane-bound GABAA receptor, was administered. When GABA binds to the GABAA receptor, the cell hyperpolarizes as a result of Cl− ion influx due to the opening of the ligand-gated Cl− ion channel. However, the hyperpolarization can be blocked by perfusing cells with bicuculline (BIC), a competitive antagonist for the GABAA receptor which binds to the GABAA receptor and prevents it from opening even in the presence of GABA.
FIG. 10A illustrates how an HT-22 cell responded when GABA was added to the cell bath (12 mM GABA in bath, arrow).
Cell Culture and Preparation. […] Cells were grown in Dulbecco's Modified Eagle Medium (DMEM, high glucose) supplemented with 10% fetal bovine serum (FBS) and 1% antibiotics. The cells were plated on 12 mm cover slips 48 hrs prior to the electrophysiology measurements. The cells on the cover slips were incubated in HBSS (with calcium and magnesium) at room temperature for 10 min prior to measurements. The cover slips were subsequently placed in an open diamond perfision bath (Warner Instruments Corp., RC-22C) positioned on an upright microscope (Nikon eclipse E600FN, 40× water-immersion lens, Burleigh Gibraltar fixed-stage platform) located atop a vibration-isolation table. Cells were routinely perfised with HBSS at a flow rate of 1.0 mllmin.
Electrophysiology. Membrane potential measurements were recorded with an Axon AxoClamp-2A amplifier equipped with a headstage for high resistance electrodes (Axon HS2-XO.OlMU) and Digidata 1322A digitizer (Axon Instruments/Molecular Devices, Sunnyvale, Calif.). Experimental protocols were controlled and data acquired by a personal computer using the Clampex 8.2 software (Axon Instruments). CNPs were inserted into a standard electrode holder until the metal wire of the holder came in contact with the inner carbon film of the CNP. A slight positive pressure was applied through the holder's perfixion port to keep external solution from filling the hollow CNP by capillarity. A micromanipulator (Narishige MHW-3) was used to manipulate and position the CNP electrodes during the electrophysiology measurements. […] Recorded electrical measurements were not adjusted to compensate for differences in extracellular and intracellular junction potentials.

Structure (SMILES): [Cl-].[K+] [KCl, Potassium chloride]
- depolarization (HT-22 cells; additional 5 mM K+, RMP -57 mV, FIG. 8C): 10 mV
- depolarization (HT-22 cells; additional 15 mM K+, RMP -57 mV, FIG. 8C): 30 mV
- depolarization (HT-22 cells; additional 15 mM K+, after GABA washout, RMP -57 mV, FIG. 10B): 25 mV
- depolarization (HT-22 cells; additional 25 mM K+, RMP -68 mV, FIG. 8B): 40 mV
- time for cell to return to its RMP (HT-22 cells; after additional 5 mM K+, normal HBSS perfusion, FIG. 8C): ~90 s
- time for cell to return to its RMP (HT-22 cells; after additional 15 mM K+, FIG. 8C): ~90 s
- time for cell to return to its RMP (HT-22 cells; after additional 15 mM K+, constant HBSS perfusion, FIG. 10B): 60 s

Structure (SMILES): NCCCC(=O)O [GABA, Y-aminobutyric acid]
- hyperpolarization from the RMP (GABAA receptor; RMP -57 mV, FIG. 10B): 12 mV
- hyperpolarization from the RMP (GABAA receptor; normal HBSS perfusion, RMP -53 mV, FIG. 10A): 10 mV
- time for cell to return to its RMP (GABAA receptor; after 12 mM GABA washed away, FIG. 10B): 60 s
- time for cell to return to its RMP (GABAA receptor; after 12 mM GABA, FIG. 10A): 30 s

From patent publication US20110125050A1, “Multiple-Electrode and Metal-Coated Probes” (THE TRUSTEES OF THE UNIVERSITY OF PENNSYLVANIA, priority 2004, published 2011)
